Experimental data: patent US12173320B2, “Production of red blood cells and platelets from stem cells” (BOSTON MEDICAL CENTER CORPORATION, priority 2012, dated 2024)

What was measured:
[1] = test system: AhR (CYP1B1 target gene expression) in MEPs; assay: Quantitative RT-PCR of AhR target gene CYP1B1 in MEPs; assay type: cell-based, human
Method: (§1) 6-formylindolo[3,2-b]carbazole (FICZ), an AHR small molecule agonist, and CH223191, an AHR competitive inhibitor were used for these assays. CH223191 was added to mesoderm cultures at Day 6 at 5 μM (lx) and 2.504 (0.5×). 0.2 μM FICZ was added to cultures at Day 7 and media was added daily. DMSO was used as a vehicle control.
RNA was extracted using the RNeasy kit (Qiagen) according to the manufacturer's instructions and DNase treated using the DNA-free kit (Ambion AM1906). Reverse transcription into cDNA was performed using the High Capacity cDNA Reverse Transcription Kit (Applied Biosystems 4368814). Quantitative (real time) PCR amplification of cDNA was performed using Taqman probes for AHR (Hs00169233 ml), CYP1B1 (Hs002382916 sl), HBA (Hs00361191 gl), HBB (Hs00758889 sl), HBG (Hs01629437 sl), vWF (Hs00169795 ml), PF4 (Hs00427220 gl), NF-E2 (Hs00232351 ml) and CD62P (Hs00927900 ml) and run on the Applied Biosystems StepOne machine. Relative gene expression was normalized to B-actin (Hs99999903 ml).
To characterize AhR expression and functionality in both undifferentiated iPSCs and directly differentiated MEPs, AhR protein levels were determined via Western blot in these populations. […] To test this hypothesis, the ability of FICZ to induce a prototypic AhR-target gene, CYPIB1, in iPSCs or, as a positive control, MEPs was assessed by quantitative RT-PCR.

iPSC-derived MEPs = assay: Live versus dead cell FACS (propidium iodide vs. Hoechst) of MEPs; assay type: cell-based, human
Method: as §1
Roughly 10^5 cells were collected, spun, and re-suspended in 0.5% BSA in PBS. Samples were incubated for 30 min at ambient temperature with human antibodies including CD41a-FITC (BD 555466), CD235-PE (BD 555570), CD71-FITC (BD 555536), washed and spun at 3300 rpm for 7 min, and re-suspended in 0.5% BSA in PBS with 1 ug/ml Propidium Iodide. Samples were run on a BD FACScalibur using Cellquest Pro software and analyzed via FloJo 8.7. For ploidy analysis, cells were treated with 1.5% NP-40 (Boston Bioproducts P-872) and 62.5 ug/ml Propidium Iodide in PBS immediately before FACScalibur interrogation. For murine bone marrow, samples were first incubated for 5 min at ambient temperature with murine conjugated antibody CD16/32 (BD 553142) before a 30 min incubation with c-Kit-PE (BD 553355), CD41a-FITC (BD 553848), Ter119-PE (BD 553673). For cell viability assays, 2-3×10 ^5 cells were collected, re-suspended in 8.8 ug/ml Hoecsht 33342 in PBS supplemented with 5% FBS. Samples were then incubated in the dark at 37° C. for 15 min, washed, and re-suspended in 1 ug/ml Propidium Iodide in 5% FBS. Samples were run on an LSR-II machine with FACSDiva software and analyzed via FloJo 8.7.
In order to determine whether FICZ-mediated transactivation of the AhR receptor was responsible for the exponential expansion of iPSC-derived MEPs, the previously described Hoecsht/Propidium Iodide apoptosis assay was performed using the known AhR inhibitor CH223191. As previously shown in FIG. 3, fewer cells stained with propidium iodide after FICZ treatment (e.g., 15.5% vs. 8.09%) (FIG. 5E). […] The efficacy of the CH223191 was confirmed by its ability to block CY1^31B1 induction as assayed by qRT-PCR (FIG. 5F).

CYP1B1 expression ([1]; Day 15 MEPs, with vs. without FICZ, normalized to β-actin): statistically significant increases
responsiveness to AhR agonist (CYP1B1 RT-PCR) ([1]; MEP, normalized to GAPDH): responsive
Structure (SMILES): O=Cc1c2c(cc3c1=Nc1ccccc1-3)=Nc1ccccc1-2 [FICZ, 6-formylindolo[3,2-b]carbazole]
cells stained with propidium iodide (iPSC-derived MEPs; D13 MEPs, FICZ added at D7, untreated 15.5%): 8.09%
population of live cells as delineated by FSC and SSC (iPSC-derived MEPs; day 15 MEPs + FICZ): 32.6%
live cells PI- Hoechst+ (iPSC-derived MEPs; day 15 MEPs + FICZ, gated from FSC vs. SSC population): 97.7%
cell death by propidium iodide staining and Hoechst dye exclusion (iPSC-derived MEPs; day 30 MEPs, versus untreated control): significantly less cell death
